For 33 compounds, IC50 results are on record in patent US8163756B2 (priority 2004, dated 2012).

The first assay deals with B-Raf(V599E) kinase (Homo sapiens, UniProt P15056, V600E). The assay can be described thus: B-Raf(V599E) kinase assay B1 (construct 1, MEK1 substrate, coupled spectrophotometric). The assay is classed as biochemical.
B-Raf(V599E) kinase, sequence (P15056 with tags, fused parts or gaps V600E): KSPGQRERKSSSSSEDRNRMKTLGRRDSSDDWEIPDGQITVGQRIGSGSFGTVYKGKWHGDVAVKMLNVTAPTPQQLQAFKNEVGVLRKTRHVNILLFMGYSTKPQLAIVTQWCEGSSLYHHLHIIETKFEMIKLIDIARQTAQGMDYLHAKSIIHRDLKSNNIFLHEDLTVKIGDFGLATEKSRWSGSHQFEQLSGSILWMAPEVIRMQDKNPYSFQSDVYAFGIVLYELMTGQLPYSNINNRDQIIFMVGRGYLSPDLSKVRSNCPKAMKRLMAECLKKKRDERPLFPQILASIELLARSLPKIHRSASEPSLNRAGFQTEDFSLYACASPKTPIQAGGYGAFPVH
Conditions: not given
The protocol:
The test compounds were incubated with the reaction mixtureat 30° C. for 2 h. […] The reaction rate was calculated using the […] time frame. […] IC50 values were calculated from a series of percent inhibition values determined at a range of inhibitor concentrations using software routines as implemented in the GraphPad Prism software package.
`CC(C)(C)c1cc(NC(=O)Nc2ccc(Cl)cc2)n(-c2cccc(CCN)c2)n1` [Example 255, 1-{1-[3-(2-aminoethyl)phenyl]-3-t-butyl-1H-pyrazol-5-yl}-3-(4-chlorophenyl)urea] showed an IC50 of 86 nM. The compound `CC(C)(C)c1cc(NC(=O)Nc2cc(F)c(F)c(F)c2)n(-c2ccc3c(c2)CCC(=O)N3)n1` [Example 324, 1-(3-t-butyl-1-(2-oxo-1,2,3,4-tetrahydro-quinolin-6-yl)-1H-pyrazol-5-yl)-3-(3,4,5-trifluorophenyl)urea] came in with an IC50 of 17 nM. On the same count and under the same terms, then `CC(C)(C)c1cc(NC(=O)Nc2cccc(Br)c2)n(-c2cccc(CO)c2)n1` [Example 223, 1-{3-t-butyl-1-[3-(hydroxymethyl)phenyl]-1H-pyrazol-5-yl}-3-(3-bromophenyl)urea], with 54 nM; and `CC(C)(C)c1cc(NC(=O)Nc2ccccc2)n(-c2cc(CO)c3ccccc3c2)n1` [Example 290, 1-[3-t-butyl-1-(4-(hydroxymethyl)naphthalen-2-yl)-1H-pyrazol-5-yl]-3-phenylurea], with 12 nM. With `CC(C)(C)c1cc(NC(=O)Nc2ccccc2F)n(-c2cc(CC(N)=O)c3ccccc3c2)n1` [Example 89, 1-(1-(4-(2-amino-2-oxoethyl)naphthalen-2-yl)-3-t-butyl-1H-pyrazol-5-yl)-3-(2-fluorophenyl)urea], the IC50 worked out at 5.5 nM. Regarding `CC(C)(C)c1cc(NC(=O)NC2CCCCC2)n(-c2cccc(-c3cccnc3)c2)n1` [Example 274, 1-[5-t-butyl-2-(3-pyridin-3-yl-phenyl)-2H-pyrazol-3-yl]-3-cyclohexyl-urea], the IC50 was 134 nM. Same read-out and setting: then `CC(C)(C)c1cc(NC(=O)Nc2ccccc2F)n(-c2cccc(CO)c2)n1` [Example 219, 1-{3-t-butyl-1-[3-(hydroxymethyl)phenyl]-1H-pyrazol-5-yl}-3-(2-fluorophenyl)urea], with 55 nM; and `COc1cccc(-n2nc(C(C)(C)C)cc2NC(=O)Nc2ccc3c(c2)OCO3)c1` [Example 234, 1-(benzo[d][1,3]dioxo-5-yl)-3-(3-t-butyl-1-(3-methoxyphenyl)-1H-pyrazol-5-yl)urea], with 32 nM; and `CC(C)(C)c1cc(NC(=O)NC2CCCCC2)n(-c2ccc3c(c2)CNCC3)n1` [Example 327, 1-(3-t-butyl-1-(1,2,3,4-tetrahydroisoquinolin-7-yl)-1H-pyrazol-5-yl)-3-cyclohexylurea], with 330 nM.

In turn, `CC(C)(C)c1cc(NC(=O)Nc2ccc(Cl)cc2)n(-c2cc(CCO)c3ccccc3c2)n1` [Example 302, 1-{5-t-butyl-2-[4-(2-hydroxyethyl)naphthalen-2-yl]-2H-pyrazol-3-yl}-3-(4-chlorophenyl)urea] displayed an IC50 of 13 nM. In the case of `CC(C)(C)c1cc(NC(=O)Nc2ccc(F)cc2F)n(-c2ccc3ncccc3c2)n1` [Example 284, 1-(3-t-butyl-1-(quinolin-6-yl)-1H-pyrazol-5-yl)-3-(2,4-difluorophenyl)urea], the IC50 is 8.5 nM. `CC(C)(C)c1cc(NC(=O)Nc2ccc(F)c(F)c2F)n(-c2ccc3c(c2)CCC(=O)N3)n1` [Example 322, 1-(3-t-butyl-1-(2-oxo-1,2,3,4-tetrahydro-quinolin-6-yl)-1H-pyrazol-5-yl)-3-(2,3,4-trifluorophenyl)urea] came in with an IC50 of 4.1 nM. `CC(C)(C)c1cc(NC(=O)Nc2cccc(Cl)c2)n(-c2cccc(CO)c2)n1` [Example 222] had an IC50 of 47 nM.

Staying with this assay, now noted: Method B1; read-out: B-Raf Data.
Consider `CC(C)(C)c1cc(NC(=O)Nc2cc(F)c(F)cc2F)n(-c2cccc(CC(N)=O)c2)n1` [Example 434, 1-(1-(3-(2-amino-2-oxoethyl)phenyl)-3-t-butyl-1H-pyrazol-5-yl)-3-(2,4,5-trifluorophenyl)urea], for which the IC50 is 6.7 nM.

As to `CC(C)(C)c1cc(NC(=O)Nc2cccc(-c3cnccn3)c2)n(-c2cccc(CC(N)=O)c2)n1` [Example 437, 1-(1-(3-(2-amino-2-oxoethyl)phenyl)-3-t-butyl-1H-pyrazol-5-yl)-3-(3-(pyrazin-2-yl)phenyl)urea], the IC50 came out at 279 nM. In the case of `CC(C)(C)c1cc(NC(=O)Nc2ccc(F)c(F)c2F)n(-c2cccc(CC(N)=O)c2)n1` [Example 435, 1-(1-(3-(2-amino-2-oxoethyl)phenyl)-3-t-butyl-1H-pyrazol 5-yl)-3-(2,3,4-trifluorophenyl)urea], the IC50 was 7.3 nM.

In the next assay the target is phosphorylated p-38-alpha kinase (Homo sapiens, UniProt Q16539). The experiment in a line: P-38 alpha kinase assay P1 (coupled spectrophotometric, 2 h pre-incubation). Conditions: method P1 (2 h pre-incubation); read-out: P-38 Data. The assay is classed as biochemical.
phosphorylated p-38-alpha kinase, sequence (Q16539 1-360 isoform Q16539-2): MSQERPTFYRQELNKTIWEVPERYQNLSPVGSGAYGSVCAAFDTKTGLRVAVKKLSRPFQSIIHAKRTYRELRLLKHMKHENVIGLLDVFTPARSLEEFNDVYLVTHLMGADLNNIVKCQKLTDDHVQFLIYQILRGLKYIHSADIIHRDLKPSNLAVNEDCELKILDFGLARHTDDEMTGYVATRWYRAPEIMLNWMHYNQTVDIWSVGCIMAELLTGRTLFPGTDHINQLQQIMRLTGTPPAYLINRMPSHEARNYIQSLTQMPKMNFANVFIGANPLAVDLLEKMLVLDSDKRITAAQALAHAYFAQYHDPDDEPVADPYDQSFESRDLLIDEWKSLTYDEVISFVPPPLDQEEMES
With `O=C(Cc1cccc(-n2nc(-c3ccccc3F)cc2NC(=O)Nc2cccc3ccccc23)c1)NCC(O)CO` (stereo not drawn) [Example 425, 1-(1-(3-(2-(2,3-dihydroxypropylamino)-2-oxoethyl)phenyl)-3-(2-fluorophenyl)-1H-pyrazol-5-yl)-3-(naphthalen-1-yl)urea], the IC50 amounted to 29 nM. Still for that read-out and setting: then `O=C(O)Cc1cccc(-n2nc(-c3cccs3)cc2NC(=O)Nc2ccc(F)c(F)c2F)c1` [Example 365, 2-(3-(3-(thiophen-2-yl)-5-(3-(2,3,4-trifluorophenyl)-ureido)-1H-pyrazol-1-yl)phenyl)acetic acid], with 70 nM. Same read-out and setting: then `O=C(Cc1cccc(-n2nc(-c3ccccc3F)cc2NC(=O)Nc2cccc3ccccc23)c1)NCCO` [Example 426, 1-(3-(2-fluorophenyl)-1-(3-(2-(2-hydroxyethylamino)-2-oxoethyl)phenyl)-1H-pyrazol-5-yl)-3-(naphthalen-1-yl)urea], with 38 nM; and `O=C(Cc1cccc(-n2nc(-c3ccc(F)cc3)cc2NC(=O)Nc2cccc(Cl)c2Cl)c1)NCCO` [Example 455, 1-(2,3-dichlorophenyl)-3-(3-(4-fluorophenyl)-1-(3-(2-(2-hydroxyethylamino)-2-oxoethyl)phenyl)-1H-pyrazol-5-yl)urea], with 82 nM. Same read-out and setting: in the case of `O=C(Cc1cccc(-n2nc(-c3cccs3)cc2NC(=O)N[C@H]2CCc3ccccc32)c1)NCC(O)CO` (stereo partly drawn) [Example 417, 1-((S)-2,3-dihydro-1H-inden-1-yl)-3-(1-(3-(2-(2,3-dihydroxypropylamino)-2-oxoethyl)phenyl)-3-(thiophen-2-yl)-1H-pyrazol-5-yl)urea] it was 29 nM.

For `O=C(O)Cc1ccc(-n2nc(-c3ccccc3F)cc2NC(=O)Nc2ccc(F)c(F)c2F)cc1` [Example 388, 2-(4-(3-(2-fluorophenyl)-5-(3-(2,3,4-trifluorophenyl)ureido)-1H-pyrazol-1-yl)phenyl)acetic acid], the IC50 turned out to be 91 nM. With `COC[C@H]1CCCN1C(=O)Cc1ccc(-n2nc(C(C)(C)C)cc2NC(=O)Nc2cccc(Cl)c2Cl)cc1` [Example 484, (R)-1-(3-t-butyl-1-(4-(2-(2-(methoxymethyl)pyrrolidin-1-yl)-2-oxoethyl)phenyl)-1H-pyrazol-5-yl)-3-(2,3-dichlorophenyl)urea], the IC50 came to 13 nM. Same read-out and setting: in the case of `COC[C@@H]1CCCN1C(=O)Cc1ccc(-n2nc(C(C)(C)C)cc2NC(=O)Nc2cccc(Cl)c2Cl)cc1` [Example 485, (S)-1-(3-t-butyl-1-(4-(2-(2-(methoxymethyl)pyrrolidin-1-yl)-2-oxoethyl)phenyl)-1H-pyrazol-5-yl)-3-(2,3-dichlorophenyl)urea] it was 12 nM. Same read-out and setting: in the case of `NC(=O)Cc1cccc(-n2nc(-c3nccs3)cc2NC(=O)Nc2cccc(Cl)c2Cl)c1` [Example 410, 1-(1-(3-(2-amino-2-oxoethyl)phenyl)-3-(thiazol-2-yl)-1H-pyrazol-5-yl)-3-(2,3-dichlorophenyl)urea] it was 88 nM. Still for that read-out and setting: in the case of `NC(=O)Cc1ccc(-n2nc(-c3cccs3)cc2NC(=O)N[C@H]2CCc3ccccc32)cc1` [Example 489, 1-(1-(4-(2-amino-2-oxoethyl)phenyl)-3-(thiophen-2-yl)-1H-pyrazol-5-yl)-3-((S)-2,3-dihydro-1H-inden-1-yl)urea] it was 35 nM. For the compound `O=C(Cc1cccc(-n2nc(-c3ccccc3F)cc2NC(=O)Nc2ccc(F)c(F)c2F)c1)NCC(O)CO` (stereo not drawn) [Example 424, 1-(1-(3-(2-(2,3-Dihydroxypropylamino)-2-oxoethyl)phenyl)-3-(2-fluorophenyl)-1H-pyrazol-5-yl)-3-(2,3,4-trifluorophenyl)urea], the IC50 was found to be 47 nM.

Regarding `CNC(=O)Cc1cccc(-n2nc(C(C)(C)C)cc2NC(=O)Nc2ccc(F)c(F)c2F)c1` [Example 402, 1-(3-t-butyl-1-(3-(2-(methylamino)-2-oxoethyl)phenyl)-1H-pyrazol-5-yl)-3-(2,3,4-trifluorophenyl)urea], the IC50 worked out at 26 nM. In the case of `NC(=O)Cc1cccc(-n2nc(-c3ccccc3F)cc2NC(=O)Nc2cccc3ccccc23)c1` [Example 423, 1-(1-(3-(2-amino-2-oxoethyl)phenyl)-3-(2-fluorophenyl)-1H-pyrazol-5-yl)-3-(naphthalen-1-yl)urea], the IC50 worked out at 21 nM. The same measure, in the same setting: then `CC(C)(C)c1cc(NC(=O)Nc2cccc(Cl)c2Cl)n(-c2cccc(CC(=O)N3CCC[C@H]3CO)c2)n1` [Example 408, 1-(3-t-butyl-1-(3-(2-((S)-2-(hydroxymethyl)pyrrolidin-1-yl)-2-oxoethyl)phenyl)-1H-pyrazol-5-yl)-3-(2,3-dichlorophenyl)urea], with 46 nM; and `O=C(Cc1cccc(-n2nc(-c3cccs3)cc2NC(=O)Nc2cccc3ccccc23)c1)NCCO` [Example 428, 1-(1-(3-(2-(2-hydroxyethylamino)-2-oxoethyl)phenyl)-3-(thiophen-2-yl)-1H-pyrazol-5-yl)-3-(naphthalen-1-yl)urea], with 12 nM; and `NC(=O)Cc1ccc(-n2nc(-c3cccc(F)c3)cc2NC(=O)Nc2cccc(Cl)c2Cl)cc1` [Example 480, 1-(1-(4-(2-amino-2-oxoethyl)phenyl)-3-(3-fluorophenyl)-1H-pyrazol-5-yl)-3-(2,3-dichlorophenyl)urea], with 73 nM. Same read-out and setting: in the case of `CC(C)(C)c1cc(NC(=O)Nc2ccc(F)c(F)c2F)n(-c2ccc(CC(N)=O)cc2)n1` [Example 466, 1-(1-(4-(2-amino-2-oxoethyl)phenyl)-3-t-butyl-1H-pyrazol-5-yl)-3-(2,3,4-trifluorophenyl)urea] it was 22 nM.
